Measured values published in US6960582B2, “Guanidino compounds” (Chiron Corporation, priority 2001, dated 2005).

Biological target: MC4-R (Homo sapiens, UniProt P32245)
Assay: cAMP Scintillation Proximity Assay (SPA) in cells expressing MC4-R
Assay type: cell-based
Conditions: intercellular cAMP concentration by SPA kit, read-out: in vitro potency (as measured by EC50 value)
Description: EC50 values of test compounds were determined by treating cells expressing MC4-R with test compound and lysing the cells and measuring intercellular cAMP concentration with an Amersham-Pharmacia RPA-559 cAMP Scintillation Proximity Assay (SPA) kit. The following compounds were synthesized and tested according to this assay. The following compounds are merely illustrative and should not be construed as limiting of the instant invention.

Sequence of MC4-R (P32245 whole entry, species assumed): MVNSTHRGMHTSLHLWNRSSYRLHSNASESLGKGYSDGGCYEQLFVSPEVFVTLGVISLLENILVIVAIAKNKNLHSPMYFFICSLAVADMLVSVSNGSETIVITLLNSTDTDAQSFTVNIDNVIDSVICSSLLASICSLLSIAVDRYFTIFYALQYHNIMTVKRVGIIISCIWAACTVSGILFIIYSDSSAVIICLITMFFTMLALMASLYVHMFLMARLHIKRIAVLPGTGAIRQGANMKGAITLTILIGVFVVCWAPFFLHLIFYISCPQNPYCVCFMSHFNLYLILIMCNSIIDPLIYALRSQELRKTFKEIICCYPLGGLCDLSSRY

EC50 | Structure (SMILES)
< 3 µM | Cc1ccc(CCc2nc3ccc(NC(=N[C@H]4C[C@H]5C[C@@H]([C@@H]4C)C5(C)C)N4CCN[C@@H](C)C4)cc3[nH]2)c(C)c1 [Example 24, (3S)-N-{2-[2-(2,4-dimethylphenyl)ethyl]-1H-benzimidazol-6-yl}-3-methyl-N′-[(1S,2S,3S,5R)-2,6,6-trimethylbicyclo[3.1.1]hept-3-yl]piperazine-1-carboximidamide]
< 3 µM | C[C@@H]1[C@@H](N=C(Nc2ccc3nc(CCc4ccc(F)cc4Cl)[nH]c3c2)N2CCN[C@@H](C)C2)C[C@H]2C[C@@H]1C2(C)C [Example 25, (3S)-N-{2-[2-(2-chloro-4-fluorophenyl)ethyl]-1H-benzimidazol-6-yl}-3-methyl-N′-[(1S,2S,3S,5R)-2,6,6-trimethylbicyclo[3.1.1]hept-3-yl]piperazine-1-carboximidamide]
